This is an account of results in patent publication US4176180A (priority 1977, dated 1979).

Usually Cmax stands for the peak of the concentration-time curve.

For data set [1] the following is noted: in some patients, after prolonged treatment; cited from earlier work.
Data set [2] concerns Bordetella pertussis. To be noted: gram negative bacilli; cited from earlier work.
The test system of data set [3] is Mycoplasma pneumoniae. To be noted: mycoplasmae; cited from earlier work.
In data set [4] the test system is Str. faecalis. Conditions: gram positive cocci; cited from earlier work.
In data set [5] the test system is Neisseria gonorrhoeae. To be noted: gram negative cocci; cited from earlier work.
For data set [6], the system named is Str. pyogenes. Conditions: gram positive cocci; cited from earlier work.
In data set [7] the test system is Staph. epidermidis. To be noted: gram positive cocci; cited from earlier work.
In data set [8] the test system is Diplococcus pneumoniae. To be noted: gram positive cocci; cited from earlier work.
Data set [9] relates to Staph. aureus. Conditions: gram positive cocci; cited from earlier work.
The test system of data set [10] is Bacteroides fragilis. To be noted: gram negative bacilli; cited from earlier work.
Data set [11] concerns Listeria monocytogenes. Conditions: gram positive bacilli; cited from earlier work.
In data set [12] the test system is Plectridium tetani. To be noted: gram positive bacilli; cited from earlier work.
The subject of data set [13] is Str. non-groupable. Conditions: gram positive cocci; cited from earlier work.
Data set [14] deals with Clostridium perfringens. To be noted: gram positive bacilli; cited from earlier work.
The test system of data set [15] is Erysipelothrix insidiosa. Conditions: gram positive bacilli; cited from earlier work.
For data set [16] the following is noted: human, in vivo, 2 h.
Data set [17] concerns Brucella melitensis. Conditions: gram negative bacilli; cited from earlier work.
Data set [18] deals with Haemophilus influenzae. Conditions: gram negative bacilli; cited from earlier work.
Data set [19] relates to Neisseria menigitidis. To be noted: gram negative cocci; cited from earlier work.
Data set [20] can be described thus: clinical. Conditions: human, in vivo.
Data set [21] concerns Corynebacterium diphteriae. To be noted: gram positive bacilli; cited from earlier work.
The subject of data set [22] is Pasteurella multocida. To be noted: gram negative bacilli; cited from earlier work.
Data set [23] in a line: serum concentration of erythromycin two hours after ethyl-succinyl erythromycin. It counts as in vivo, human (ill persons).
The mark [24] stands for this setting: Serum concentration of erythromycine, Average.

The structures appear in SMILES notation. Where a name gives a salt, the structure may show the parent alone.

Regarding `CCC(=O)O[C@H]1[C@H](O[C@@H]2[C@@H](C)[C@H](O[C@H]3C[C@@](C)(OC)[C@@H](O)[C@H](C)O3)[C@@H](C)C(=O)O[C@H](CC)[C@@](C)(O)[C@H](O)[C@@H](C)C(=O)[C@H](C)C[C@@]2(C)O)O[C@H](C)C[C@@H]1N(C)C` [estolate, lauryl sulfate of the propionic ester of erythromycin], the hepatotoxicity result in [1] is “not inconsiderable hepatotoxicity”.

With `CC[C@H]1OC(=O)[C@H](C)[C@@H](O[C@H]2C[C@@](C)(OC)[C@@H](O)[C@H](C)O2)[C@H](C)[C@@H](O[C@@H]2O[C@H](C)C[C@H](N(C)C)[C@H]2O)[C@](C)(O)C[C@@H](C)C(=O)[C@H](C)[C@@H](O)[C@]1(C)O` [E, erythromycin], the “MINIMUM INHIBITING CONCENTRATIONS” value in data set [2] is 0.2 […] MILILITER OF MEDIUM; in data set [3], 0.004-0.016 […] MILILITER OF MEDIUM; in data set [4] it was 0.6-3.1 […] MILILITER OF MEDIUM; in data set [5], 0.04-0.4 […] MILILITER OF MEDIUM; in data set [6], 0.02-0.2 […] MILILITER OF MEDIUM; in [7], 0.2-3.1 […] MILILITER OF MEDIUM. The “MINIMUM INHIBITING CONCENTRATIONS” value in data set [8] is 0.01-0.2 […] MILILITER OF MEDIUM; in data set [9], 0.01-1.6 […] MILILITER OF MEDIUM; in data set [10], 0.8-6.2 […] MILILITER OF MEDIUM; in [11] it was 0.2 […] MILILITER OF MEDIUM; in data set [12], 0.2-0.6 […] MILILITER OF MEDIUM; in data set [13], 0.02-3.1 […] MILILITER OF MEDIUM. The “MINIMUM INHIBITING CONCENTRATIONS” value in [14] is 0.1-0.2 […] MILILITER OF MEDIUM; in data set [15], 0.06 […] MILILITER OF MEDIUM; in data set [17], 0.3 […] MILILITER OF MEDIUM; in data set [18], 0.4-3.1 […] MILILITER OF MEDIUM; in data set [19], 0.2-1.6 […] MILILITER OF MEDIUM; in data set [21] it was 0.2-3.1 […] MILILITER OF MEDIUM. Moreover, in data set [22], the “MINIMUM INHIBITING CONCENTRATIONS” value is 0.8 […] MILILITER OF MEDIUM. Further, the “Serum concentration of erythromycine, Average” value in [16] turned out to be 988 ng/mL. This compound had a Cmax in data set [20] (Maximum concentrations of erythromycin, Average m) of 996 ng/mL. In addition, in [20] (setting [24]), the concentration at 1 h turned out to be 321 ng/mL. The same compound yielded a concentration at 1.5 h in [20] (setting [24]) of 610 ng/mL. In addition, the concentration at 2 h in data set [20] (setting [24]) worked out at 988 ng/mL.

On to `CCOC(=O)CCC(=O)O[C@H]1[C@H](O[C@@H]2[C@@H](C)[C@H](O[C@H]3C[C@@](C)(OC)[C@@H](O)[C@H](C)O3)[C@@H](C)C(=O)O[C@H](CC)[C@@](C)(O)[C@H](O)[C@@H](C)C(=O)[C@H](C)C[C@@]2(C)O)O[C@H](C)C[C@@H]1N(C)C` [ES, ethyl-succinyl erythromycin], for which the “regularity of the serum concentrations obtained” value in data set [23] (two hours following administration) is reported as “irregularity in the serum concentrations obtained”. The “Serum concentration of erythromycin, Total” value in [23] (two hours following administration of 600 mg, sum over 9 persons) amounted to 15360 ng/mL.
